Target: T1, human GPR84 receptor (Homo sapiens, UniProt Q9NQS5)
T1 construct: host or cells: HEK293, transient transfection
Test: Gαi biosensor BRET assay in HEK293 cells (antagonism of ZQ-16)
Assay type: cell-based
Details: for inhibition at 25 µM: HEK293, single concentration 25 μM (designated I); for inhibition at 10 µM: HEK293, single concentration 10 μM (designated F); for IC50: HEK293 cells, antagonism of 200 nmol/L ZQ-16; for inhibition at 2 µM: HEK293, single concentration 2 μM (designated A)
Excerpt: Background—The following assays can be used for determination of GPR84 activation in living HEK293 cells. The Gai BRET biosensor (Gagnon et al., 2018; Gales et al., 2006. Nat StructMol Biol. 13, 778-86; Saulieres et al., 2012. Nat Chem Biol. 8, 622-30) allows to directly monitor GPR84-mediated activation of Gai. The Gai biosensor consists of a Rluc8-tagged Gαi2 subunit, a GFP10-tagged Gγ2 subunit, and an untagged Gβ1. Agonist stimulation and GPR84 activation triggers a physical separation between the RLuc8-Gαi donor and the GFP10-Gγ2 acceptor, resulting in a decrease in BRET signal whose amplitude is correlated to ligand efficacy (Gales et al., 2006). Moreover, signaling functions of GPCRs are tightly regulated by endocytosis, the targeting of receptors to endosomes and their sorting to lysosomes or recycling to the plasma membrane. The early endosomes (EEs) trafficking assay (Namkung et al., 2016. Nat Commun. 7, 12178) uses Rluc8-tagged GPR84 and Renilla GFP (rGFP) attached to the FYVE domain from human endofin/zinc finger FYVE domain-containing protein 16, which binds phosphatidylinositol 3-phosphate in EEs. Agonist stimulation of GPR84-Rluc8 leads to trafficking of the receptor to EEs, and ensuing increase of the donor concentration relative to the rGFP-FYVE acceptor anchored in the same cellular compartment, and thus results in an increase in BRET signal.
Plasmids—The cDNA clones for human GPR84 receptor, human Gai2, Gp1, and Gy2 were obtained from the cDNA Resource Center (www.cdna.org). GFP10 (F64L, S147P, S202F and H231L variant of Aequorea victoria Green Fluorescent Protein) gBlocks gene fragments (Integrated DNA Technologies, IA) and linker were inserted in frame at the N-terminus of human Gγ2. Rluc8 (A55T, C124A, S130A, K136R, A143M, M185V, M253L, and S287L variant of the Renilla renformis luciferase) gBlocks gene fragment was inserted with linkers in frame in between residues 91 and 92 of Gai2 or at the C-terminus of GPR84. The FYVE domain from human endofin (residues Q739 to K806) attached in frame at the C terminus of a humanized Renilla GFP (rGFP), were synthesized as gBlocks gene fragments.
Bioluminescence Resonance Energy Transfer (BRET) Measurement—HEK293 cells were transfected with GPR84-Rluc8 and rGFP-FYVE for the EEs trafficking biosensor or with GPR84, Gαi2-Rluc8, GFP10-Gγ2, and Gβ1 for the Gαi biosensor. The following day, transiently transfected cells were seeded in 96-well white clear bottom microplates coated with poly-D-lysine and left in culture for 24 hours. Cells were washed once with Tyrode's buffer (140 mmol/L NaCl, 1 mmol/L CaCl2, 2.7 mmol/L KCl, 0.49 mmol/L MgCl2, 0.37 mmol/L NaH2PO4, 5.6 mmol/L glucose, 12 mmol/L NaHCO3, and 25 mmol/L HEPES, pH 7.5) before performing assays in Tyrode's buffer. Test compounds were incubated with cells for 5 (Gαi) or 15 (EEs) minutes at 37° C. before addition of 200 nmol/L of the GPR84 agonist ZQ-16 (2-(Hexylthio)-6-hydroxy-4(3H)-pyrimidinone) for 5 minutes at room temperature (Gαi) or 30 minutes at 37° C. (EEs). The Rluc8 substrate coelenterazine 400A (Prolume, Lakeside, AZ) was added at a final concentration of 5 μmol/L and BRET readings were collected using an Infinite M1000 microplate reader (Tecan, Morrisville, NC). BRET^2 readings between Rluc8 and GFP10 or rGFP were collected by sequential integration of the signals detected in the 370 to 450 nm (Rluc8) and 510 to 540 nm (GFP10, rGFP) windows. The BRET signal was calculated as the ratio of light emitted by acceptor (GFP10, rGFP) over the light emitted by donor (Rluc8). The values were corrected to net BRET by subtracting the background BRET signal obtained in cells transfected with Rluc8 constructs alone. Ligand-promoted net BRET values were calculated by subtracting vehicle-induced net BRET from ligand-induced net BRET.

T1 sequence (Q9NQS5 whole entry): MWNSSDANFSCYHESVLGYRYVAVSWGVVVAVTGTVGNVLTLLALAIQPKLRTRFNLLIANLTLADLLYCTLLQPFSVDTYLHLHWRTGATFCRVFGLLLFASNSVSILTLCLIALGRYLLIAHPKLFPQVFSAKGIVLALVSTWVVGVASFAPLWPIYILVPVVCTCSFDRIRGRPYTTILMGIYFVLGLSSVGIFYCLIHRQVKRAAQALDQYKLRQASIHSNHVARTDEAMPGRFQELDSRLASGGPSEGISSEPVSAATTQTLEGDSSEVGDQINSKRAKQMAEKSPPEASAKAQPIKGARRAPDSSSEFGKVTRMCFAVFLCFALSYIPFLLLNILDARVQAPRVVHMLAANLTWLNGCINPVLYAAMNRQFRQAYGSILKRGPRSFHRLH

Structure (SMILES)	inhibition at 10 µM	IC50	further results
Cc1c(-c2ccc(OCc3ccccn3)cc2)nnn1CC1CCCCO1 (stereo not shown) [Compound I-50]			inhibition at 25 µM: 25 to 50%
CC1(C)COC(Cn2cc(-c3ccc(C#CCN4CC(C)(C)C4)cc3OC3CC3)nn2)OC1 [Compound I-788]	> 75%	≤ 300 nM	
Cc1cc(C#CCN2CC(C)(C)C2)ccc1-c1cn(CC2OCC(F)(F)CO2)nn1 [Compound I-700]			inhibition at 2 µM: 50 to 75%
Cc1ncn(CC2CCCCO2)c1-c1ccc(C#CC2CC2)cc1 (stereo not shown) [Compound I-335]			inhibition at 25 µM: 25 to 50%
Cc1cc(N2CC(C)(C)C2)ccc1-c1cn(CC2OCC(F)(F)CO2)nn1 [Compound I-687]	50 to 75%		
Cc1cc(C#CCN(C)CC2CC2)cnc1-c1cn(CC2CCCCO2)nn1 (stereo not shown) [Compound I-251]	> 75%		
Cc1cc(C#CC2CC2)ccc1-c1cn(CC2OCC(c3ccccc3)CO2)nn1 (stereo not shown) [Compound I-704]	≤ 25%		
Cc1ccc(C#CC2CC2)cc1-n1nc(CC2CC(F)(F)CCO2)oc1=O (stereo not shown) [Compound I-494, 3-(5-(cyclopropylethynyl)-2-methylphenyl)-5-((4,4-difluorotetrahydro-2H-pyran-2-yl)methyl)-1,3,4-oxadiazol-2(3H)-one]	> 75%		
Cc1cc(N2CC(CO)C2)ccc1-c1cn(CC2CCCCO2)nn1 (stereo not shown) [Compound I-471]	> 75%		
COC(c1cn(CC2CCCCO2)nn1)c1c(C)ccc(C#CC2CC2)c1F (stereo not shown) [Compound I-656]	> 75%	300 to 1000 nM	
Cc1cc(N2CC(C)(CO)C2)cnc1-c1cn(CC2Oc3ccccc3O2)nn1 [Compound I-628]	> 75%		
COCC#Cc1cnc(-c2cn(CC3OCC(C)(C)CO3)nn2)c(OCC(F)(F)F)c1 [Compound I-847]	≤ 25%		
Cc1nn(CC2CCCCO2)cc1-c1ccc(C#CC2CC2)cc1 (stereo not shown) [Compound I-319]			inhibition at 25 µM: ≤ 25%
Cc1nc(-c2ccc(C#CC3CC3)cc2)cn1CC1CCCCO1 (stereo not shown) [Compound I-336]			inhibition at 25 µM: ≤ 25%
CN(C)c1cc(C#CCNc2ccccc2)ccc1-c1cn(CC2CCCCO2)nn1 (stereo not shown) [Compound I-203]		1000 to 3000 nM	inhibition at 2 µM: > 75%
Cc1cc(C#CCn2cc(-c3ccccc3)nn2)ccc1-c1cn(CC2CCCCO2)nn1 (stereo not shown) [Compound I-432, 1-(3-(3-methyl-4-(1-((tetrahydro-2H-pyran-2-yl)methyl)-1H-1,2,3-triazol-4-yl)phenyl)prop-2-ynyl)-4-phenyl-1H-1,2,3-triazole]	> 75%	300 to 1000 nM	
C[C@@H]1Cc2oc(C(=O)NC[C@@H]3COCCO3)c(C(F)(F)F)c2-c2nn(CC3CCN(C(=O)C4CC4)CC3)cc21 [Compound I-787]	≤ 25%	300 to 1000 nM	
Cc1cc(N2CCC[C@H](N(C)Cc3ccccc3)C2)ccc1-c1cn(C[C@H]2CCCCO2)nn1 (stereo in doubt) [Compound I-240]	> 75%		
CC1(C)COC(Cn2cncc2-c2ncc(C#CC3CC3)cc2OC2CC2)OC1 [Compound I-832]	≤ 25%		
Cc1ccccc1-c1cn(CC#Cc2cnc(-c3cn(CC4CCCCO4)nn3)c(C)c2)nn1 (stereo not shown) [Compound I-734]	> 75%	300 to 1000 nM	
Cc1cc(C#CCNC(=O)OCc2ccccc2)ccc1-c1cn(CC2CCCCO2)nn1 (stereo not shown) [Compound I-608]	> 75%	300 to 1000 nM	
Cc1cc(C#CC2CC2)ccc1-c1cn(CC2CC(C)(C)O2)nn1 (stereo not shown) [Compound I-197]	50 to 75%		
Cc1cc(N2CC(C(F)F)C2)ccc1-c1cn(CC2CCCCO2)nn1 (stereo not shown) [Compound I-520]	50 to 75%		
COC(c1cn(CC2CCCCO2)nn1)c1cc(C#CC2CC2)c(F)cc1C (stereo not shown) [Compound I-688]	> 75%	300 to 1000 nM	
Cc1cc(N2CCN(Cc3cncnc3)CC2)ccc1-c1cn(CC2CCCCO2)nn1 (stereo not shown) [Compound I-566]	25 to 50%		
C(#CC1CC1)c1ccc(-c2nnn(CC3CCCCO3)n2)cc1 (stereo not shown) [Compound I-1]			inhibition at 25 µM: ≤ 25%

Structure (SMILES)	inhibition at 10 µM	IC50	further results
Cc1cc(N2CCN(Cc3ccccn3)CC2)ccc1-c1cn(C[C@H]2CCCCO2)cn1 [Compound I-671]	> 75%	1000 to 3000 nM	
Cc1cc(N2CCC(O)CC2)ccc1-c1cn(CC2CCCCO2)nn1 (stereo not shown) [Compound I-449]	25 to 50%		
Cc1cc(N2CC(N(C)C)C2)ccc1-c1cn(CC2CCCCO2)nn1 (stereo not shown) [Compound I-114]	≤ 25%		
Cc1cc(N2CC(C)(CO)C2)c(F)cc1-c1cn(CC2CCCCO2)nn1 (stereo not shown) [Compound I-730]	> 75%	300 to 1000 nM	
C(#CC1CC1)c1ccc(-c2cn(CCOCC3CCCCO3)nn2)cc1 (stereo not shown) [Compound I-83]			inhibition at 25 µM: 25 to 50%
CC(c1cccc(N2CC(C)(C)C2)c1)c1cn(CC2CCCCO2)nn1 (stereo not shown) [Compound I-536]	≤ 25%		
Cc1cc(N2CC(C)(C)C2)cnc1-c1cn(CC2OCC(C)(C)CO2)nn1 [Compound I-584]	> 75%		
CN(C)c1cc(N2CC(C)(CO)C2)c(F)cc1-c1cn(CC2OCC(C)(C)CO2)nn1 [Compound I-711]		≤ 300 nM	inhibition at 2 µM: > 75%
Cc1cc(N2CC(C)(CO)C2)cnc1-c1cn(CCc2ncccn2)nn1 [Compound I-695]	≤ 25%		
C(#CC1CC1)c1ccc(-c2cn(CC3CCCCO3)nn2)cn1 (stereo not shown) [Compound I-35]			inhibition at 25 µM: ≤ 25%
Cc1cc(C#CCn2cc(-c3ccc(N(C)C)cc3)nn2)cnc1-c1cn(CC2CCCCO2)nn1 (stereo not shown) [Compound I-712]		≤ 300 nM	inhibition at 2 µM: > 75%
CC(c1cc(C#CC2CC2)ccn1)c1cn(CC2CCCCO2)nn1 (stereo not shown) [Compound I-633]	50 to 75%		
CC1(C)COC(Cn2cc(-c3ncc(C#CCO)cc3OC3CC3)nn2)OC1 [Compound I-771]		≤ 300 nM	
CCc1cc(N2CC(C)(C)C2)cnc1-c1cn(CC2CCCCO2)nn1 (stereo not shown) [Compound I-260]	50 to 75%		
Cc1cc(N2CCN(Cc3ccccn3)CC2)ccc1-c1cn(CC2CC(C)(C)O2)nn1 (stereo not shown) [Compound I-561]	> 75%	> 3000 nM	
Cc1cccc(-c2cn(CC#Cc3cnc(-c4cn(CC5CCCCO5)nn4)c(C)c3)nn2)c1 (stereo not shown) [Compound I-718]		300 to 1000 nM	inhibition at 2 µM: > 75%
CCc1ccc(C#CC2CC2)cc1-c1cn(CC2CCCCO2)nn1 (stereo not shown) [Compound I-160]	> 75%	> 3000 nM	
C(#CC1CC1)c1ccc(-c2cn(CC3CCCCO3)nn2)s1 (stereo not shown) [Compound I-38]			inhibition at 25 µM: 50 to 75%
Cc1ccccc1-c1cn(CC#Cc2ccc(-c3cn(CC4CCCCO4)nn3)c(C)c2)nn1 (stereo not shown) [Compound I-488]	50 to 75%	≤ 300 nM	
Cc1cc(C#CC2CC2)ccc1-c1cn(Cc2ncccn2)nn1 [Compound I-262]	50 to 75%		
Cc1cc(C#CC(C)O)ccc1-c1cn(CC2CCCCO2)nn1 (stereo not shown) [Compound I-78]		1000 to 3000 nM	
CC#Cc1ccc(C)c(N(C)c2cn(CC3OCC4(CC4)CO3)nn2)c1 [Compound I-850]	> 75%		
Cc1cc(CO)ccc1-c1cn(CC2CCCCO2)nn1 (stereo not shown) [Compound I-468]	25 to 50%		
Cc1cc(C#CCN2CC(C)(C)C2)cnc1-c1nnnn1CC1OCC(C)(C)CO1 [Compound I-836]	50 to 75%		
Cc1ccccc1-c1cn(CC2CCCCO2)nn1 (stereo not shown) [Compound I-467]	≤ 25%		

Source: patent US12617777B2, “GPR84 antagonists and uses thereof” (Liminal BioSciences Limited, priority 2021, dated 2026)
